The text below walks through data of PMC11357256, “Selectivity Screening and Structure–Cytotoxic Activity Observations of Selected Oleanolic Acid (OA)-Type Saponins from the Amaranthaceae Family on a Wiade Panel of Human Cancer Cell Lines” (Molecules, 2024).

Experiment [1] has as its system HTB-140. Kind of experiment: MTT cell viability assay, HTB-140 metastatic melanoma cells. It counts as cell-based, human. The settings on record: for IC50: Homo sapiens. The source says:
(§1) Cell lines used in the study were grouped as follows: skin panel (melanomas: HTB140, derived from metastatic site: lymph node, ATCC Hs 294 T; malignant A375, ATCC CRL-1619; stage I primary WM793, RRID:CVCL 8787; skin keratinocytes HaCaT); prostate panel (prostate carcinomas: Du145, derived from metastatic site: brain, ATCC HTB-81; grade IV PC3, derived from metastatic site: bone, ATCC CRL-1435, LNCaP, derived from the metastatic site: lymph node, ATCC CRL-1740; prostate epithelial, PNT2, ECACC 95012613); gastrointestinal panel (colorectal adenocarcinomas: Caco2, ATCC HTB-37, HT29, ATCC HTB-38, DLD-1, ATCC CCL-221, HCT116, ATCC CCL-247, and colon epithelial cells CCD 841 CoN, ATCC CRL-1790; hepatocellular carcinoma HepG2, ATCC HB-8065); thyroid panel (follicular thyroid carcinoma FTC133, ECACC 9406090, undifferentiated thyroid carcinoma 8505C, ECACC 94090184, papillary thyroid carcinoma TPC-1, SCC147, normal thyroid follicular epithelial Nthy-ori 3–1, ECACC 90011609); and breast panel (ER-positive breast adenocarcinoma MCF7, ATCC HTB-22; ER-negative breast adenocarcinoma MDA-MB-231, ATCC HTB-26; breast epithelial MCF10A, ATCC CRL-10317). Cells were grown under standard conditions (37 °C, 5% CO2, relative humidity), and culture media (DMEM/F12 for PNT2, WM 793, HT29, PC3, FTC133, 8505 C, MDA-MB-231, TPC-1; DMEM Low Glucose for DU145; DMEM High Glucose for HTB140, A375, HaCaT; MEM with NEAA for Caco2 and MCF7; RPMI1640 with sodium pyruvate for LNCaP; DMEM/F12 with 20 ng/mL epidermal growth factor (EGF), 10 μg/mL insulin, 0.5 μg/mL hydrocortisone, 100 ng/mL cholera toxin) for MCF10A) supplemented with 10% fetal bovine serum (FBS) or 5% donor horse serum for MCF10A, and 1% antibiotics solution (10,000 U penicillin and 10 mg streptomycin/mL) […], as previously described. All cell lines, culture media, and supplements were from Sigma-Aldrich (Germany).
(§2) The cells were seeded in 96-well plates (1.5 × 10^4 cells/well). After 24 h, fresh medium was added, containing the tested compounds (0.5–100 μg/mL) and incubated for 24 or 48 h. Cell viability was determined by MTT assay, according to the manufacturer’s instructions, as described previously. Each experiment was performed in triplicate. The absorbance was measured at 570 nm using a Biotek Synergy microplate reader (BioTek Instruments Inc., Winooski, VT, USA). Cell viability was expressed as a percent of control (untreated cells). Doxorubicin was used as a reference drug.
(§3) The selectivity index (SI) was calculated from the following formula:SI = IC50 of compound in a normal cell line/IC50 of compound in cancer cell line.IC50, half maximal inhibitory concentration, is a concentration required to kill 50% of the cells.
Background: Tetrazolium dyes change colour on reduction, which living cells bring about.

Experiment [2] concerns MCF10A. Kind of experiment: MTT cell viability assay, MCF10A normal breast epithelial cells. In kind it is cell-based. The settings on record: Homo sapiens, MCF-10A.
Text: as §1, §2

In experiment [3] the test system is 8505C. Kind of experiment: MTT cell viability assay, 8505C undifferentiated thyroid carcinoma cells. It counts as cell-based, human. The settings on record: for IC50: Homo sapiens, 8505C; for Selectivity Index (SI): IC50 Nthy-ori 3-1 / IC50 8505C.
Text: as §1, §2, §3

Molecules are shown by their SMILES.

Broadly, the IC50 is the concentration needed to halve the response being measured. For the compound `CC1(C)CCC2(C(=O)O)CCC3(C)C(=CCC4C5(C)CCC(OC6OC(C(=O)O)C(O)C(O)C6O)C(C)(C)C5CCC43C)C2C1` [CE, oleanolic acid-3-O-β-D-glucuronopyranoside], the IC50 was 2.8 µg/mL in experiment [1] (HTB-140, 24 h); 1.7 µg/mL in experiment [1] (HTB-140, 48 h); greater than 100 µg/mL in experiment [2] (24 h); greater than 100 µg/mL in experiment [2] (48 h); 2.8 µg/mL in experiment [3] (24 h); 1.8 µg/mL in experiment [3] (48 h). Moreover, the “Selectivity Index (SI)” value in experiment [1] (IC50 HaCaT / IC50 HTB-140, 24 h) amounted to 1.8; in experiment [1] (IC50 HaCaT / IC50 HTB-140, 48 h), 1.1; in experiment [3] (24 h), 26.9; in experiment [3] (48 h) it was 16.5.
